From patent US20250145596A1, “HETEROCYCLIC GLP-1 AGONISTS” (Gasherbrum Bio, Inc., priority 2022, published 2025)
pEC50: −log10 of the molar value.

Molecular target: T1, GLP-1 Receptor (Homo sapiens, UniProt P43220)
T1 construct: host or cells: HEK293/CRE-Luc
Test: GLP-1R agonist cAMP stimulation assay
Format: cell-based
Conditions: HEK293/CRE-Luc cell line stably expressing the GLP-1 Receptor; 30 min at 37° C.; cAMP dynamic 2 Kit
Summary of the method: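 HEK293 cells stably expressing GLP-1R with CRE-luciferase, 1000 cells/well in DPBS with 0.5 mM IBMX and 0.1% BSA, exposed to compound (½-log dilutions) for 30 min at 37 °C. cAMP measured by HTRF (665/615 nm) after 1 h at room temperature; % activity scaled between vehicle and maximal control.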

T1 sequence (P43220 24-463): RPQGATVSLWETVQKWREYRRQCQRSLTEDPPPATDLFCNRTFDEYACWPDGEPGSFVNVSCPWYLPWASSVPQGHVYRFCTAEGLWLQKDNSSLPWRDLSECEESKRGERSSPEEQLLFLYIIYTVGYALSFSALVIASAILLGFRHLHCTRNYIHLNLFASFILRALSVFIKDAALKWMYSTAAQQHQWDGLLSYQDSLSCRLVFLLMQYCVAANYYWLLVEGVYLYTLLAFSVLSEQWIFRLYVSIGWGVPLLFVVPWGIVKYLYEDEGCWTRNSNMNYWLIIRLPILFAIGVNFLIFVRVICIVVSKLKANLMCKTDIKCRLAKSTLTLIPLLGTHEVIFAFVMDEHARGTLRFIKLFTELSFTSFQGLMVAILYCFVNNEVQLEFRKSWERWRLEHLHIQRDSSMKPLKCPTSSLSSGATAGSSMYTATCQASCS

Row | Compound | pEC50
1 | C[C@]1(c2ccc(Cl)cn2)Oc2cccc(C3CCN(Cc4ncc(-c5noc(=O)[nH]5)cc4CC4(C#N)CC4)CC3)c2O1 [Example 77] | > 9.00
2 | C[C@]1(c2ccc(Cl)cc2F)Oc2cccc(C3CCN(Cc4ncc(-c5nnc(C(F)(F)F)[nH]5)cc4CC4CCOC4)CC3)c2O1 (stereo partly shown) [Example 79] | 7.00 to 9.00
3 | CC1(c2ccccc2F)Oc2ccc(F)c(C3CCN(Cc4ncc(-c5nnc(C(F)(F)F)[nH]5)cc4CC4(C#N)CC4)CC3)c2O1 (stereo not shown) [Example 80] | 7.00 to 9.00
4 | N#CC1(Cc2cc(-c3noc(=O)[nH]3)cnc2CN2CCC(c3cccc(OCc4ccc(Cl)cc4F)n3)CC2)CC1 [Example 82] | 7.00 to 9.00
5 | N#CC1(Cc2cc(-c3nnc(C(F)(F)F)[nH]3)cnc2CN2CCN(c3ccnc(OCc4ccc(Cl)cc4F)n3)CC2)CC1 [Example 83] | 7.00 to 9.00
6 | COCC1(Cc2cc(-c3nnc(C(F)(F)F)[nH]3)cnc2CN2CCC(c3cccc4c3OC(C)(c3ccc(Cl)cn3)O4)CC2)CC1 (stereo not shown) [Example 85] | 7.00 to 9.00
7 | N#CC1(Cc2cc(-c3nnc(C(F)(F)F)[nH]3)cnc2CN2CCC(Oc3ccnc(Cc4ccc(Cl)cc4F)n3)CC2)CC1 [Example 86] | 7.00 to 9.00
8 | CS(=O)(=O)Cc1cc(-c2nnc(C(F)(F)F)[nH]2)cnc1CN1CCC(Oc2cccc(Cc3ccc(Cl)cc3F)n2)CC1 [Example 87] | 7.00 to 9.00
9 | COCCc1cc(-c2nnc(C(F)(F)F)[nH]2)cnc1CN1CCC(c2cccc3c2O[C@@](C)(c2ccc(Cl)cn2)O3)CC1 [Example 89] | 7.00 to 9.00
10 | Cc1cc(-c2nnc(C(F)(F)F)[nH]2)cnc1CN1CCC(c2cccc(OCc3ccc(Cl)cc3F)n2)CC1 [Example 90] | 7.00 to 9.00
11 | C[C@H]1CN(c2ccnc(OCc3ccc(Cl)cc3F)n2)CCN1Cc1ncc(-c2nnc(C(F)(F)F)[nH]2)cc1CC1(C#N)CC1 [Example 91] | 7.00 to 9.00
12 | CN1CCC(Cc2cc(-c3nnc(C(F)(F)F)[nH]3)cnc2CN2CCC(c3cccc4c3O[C@@](C)(c3ccc(Cl)cc3F)O4)CC2)C1=O (stereo partly shown) [Example 92] | 7.00 to 9.00
13 | Cc1cc(-c2noc(=O)[nH]2)cnc1CN1CCC(c2cccc(OCc3ccc(Cl)cc3F)n2)CC1 [Example 95] | < 7.00
14 | Cc1cc(-c2cnn(C)c2)cnc1CN1CCC(c2cccc(OCc3ccc(Cl)cc3F)n2)CC1 [Example 99] | < 7.00
15 | Cc1cc(-c2cnn(C)c(=O)c2)cnc1CN1CCC(c2cccc(OCc3ccc(Cl)cc3F)n2)CC1 [Example 100] | < 7.00

Next, values leading:

Row | pEC50 | Compound
16 | > 9.00 | C[C@]1(c2ccc(Cl)cn2)Oc2cccc(C3CCN(Cc4ncc(-c5nnn[nH]5)cc4CC4(C#N)CC4)CC3)c2O1 [Example 75]
17 | 7.00 to 9.00 | COC(C)Cc1cc(-c2nnc(C(F)(F)F)[nH]2)cnc1CN1CCC(c2cccc3c2O[C@@](C)(c2ccc(Cl)cc2F)O3)CC1 (stereo partly shown) [Example 81]
18 | 7.00 to 9.00 | C[C@]1(c2ccc(Cl)cc2F)Oc2cccc(C3CCN(Cc4ncc(-c5nnc(C(F)(F)F)[nH]5)cc4C#N)CC3)c2O1 [Example 93]
19 | 7.00 to 9.00 | Cc1cc(-c2cn(C)nn2)cnc1CN1CCC(c2cccc3c2OC(C)(c2ccc(Cl)cc2F)O3)CC1 (stereo not shown) [Example 94]
20 | < 7.00 | Cc1cc(CN2CCC(c3cccc4c3OC(C)(c3ccc(Cl)cc3F)O4)CC2)ncc1-c1nnn[nH]1 (stereo not shown) [Example 96]
21 | < 7.00 | Cc1nc(-c2cnc(CN3CCC(c4cccc5c4OC(C)(c4ccc(Cl)cc4F)O5)CC3)c(C)c2)no1 (stereo not shown) [Example 97]
22 | < 7.00 | CC1(c2ccc(Cl)cc2F)Oc2cccc(C3CCN(Cc4ncc(-c5nnn[nH]5)cc4C(F)(F)F)CC3)c2O1 (stereo not shown) [Example 98]
